Results from PubChem BioAssay AID330 (DTP/NCI, 2004).
Several values for one entry are separate records, joined by “and”; a condition that tells them apart may be missing. Equal entries are not always repeated. Toxic doses and inconclusive results are not listed.

System: P388 leukemia ip, CD2F1 mice, survival T/C
Assay: NCI In Vivo Anticancer Drug Screen. Data for tumor model P388 Leukemia (intraperitoneal) in CD2F1 (CDF1) mice
Details: endpoint: median survival time, higher = longer survival
Procedure, shortened: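 Mice carrying the transplanted tumor received test compound or vehicle. Survival was recorded in each group, and the value is the treated-group measurement divided by that of the vehicle-treated control group.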

[1] = dose: 50.0 mg/kg/injection, schedule: Q01DX009 (ip), vehicle: saline
[2] = dose: 100.0 mg/kg/injection, schedule: Q01DX009 (ip), vehicle: saline
[3] = dose: 25.0 mg/kg/injection, schedule: Q01DX005 (ip), vehicle: Klucel (hydroxypropylcellulose) (HPC)
[4] = dose: 50.0 mg/kg/injection, schedule: Q01DX005 (ip), vehicle: Klucel (hydroxypropylcellulose) (HPC)
[5] = dose: 100.0 mg/kg/injection, schedule: Q01DX005 (ip), vehicle: Klucel (hydroxypropylcellulose) (HPC)
[6] = dose: 200.0 mg/kg/injection, schedule: Q01DX005 (ip), vehicle: Klucel (hydroxypropylcellulose) (HPC)
[7] = dose: 60.0 mg/kg/injection, schedule: Q01DX005 (ip), vehicle: saline with Tween-80
[8] = dose: 12.5 mg/kg/injection, schedule: Q01DX005 (ip), vehicle: saline with Tween-80
[9] = dose: 25.0 mg/kg/injection, schedule: Q01DX005 (ip), vehicle: saline with Tween-80
[10] = dose: 50.0 mg/kg/injection, schedule: Q01DX005 (ip), vehicle: saline with Tween-80

## CC1CCC(NC(=O)N(CCCl)N=O)CC1 (centres undefined)
dose: 1.0 mg/kg/injection, schedule: Q01DX009 (ip), vehicle: saline sonified
  T/C: 112 % of control
dose: 2.0 mg/kg/injection, schedule: Q01DX009 (ip), vehicle: saline with Tween-80
  T/C: 122 % of control
dose: 3.0 mg/kg/injection, schedule: Q04DX003 (ip), vehicle: other
  T/C: 163 % of control
dose: 3.75 mg/kg/injection, schedule: Q04DX003 (ip), vehicle: other
  T/C: 163 % of control
dose: 4.0 mg/kg/injection, schedule: Q01DX009 (ip), vehicle: saline sonified
  T/C: 166 % of control
dose: 4.0 mg/kg/injection, schedule: Q01DX009 (ip), vehicle: saline with Tween-80
  T/C: 154 % of control
dose: 5.0 mg/kg/injection, schedule: Q04DX003 (ip), vehicle: other
  T/C: 238 % of control
dose: 6.0 mg/kg/injection, schedule: Q04DX003 (ip), vehicle: other
  T/C: 247 % of control
dose: 7.5 mg/kg/injection, schedule: Q04DX003 (ip), vehicle: other
  T/C: 225 % of control
dose: 8.0 mg/kg/injection, schedule: Q01DX009 (ip), vehicle: saline sonified
  T/C: 100 % of control
dose: 8.0 mg/kg/injection, schedule: Q01DX009 (ip), vehicle: saline with Tween-80
  T/C: 190 % of control
dose: 10.0 mg/kg/injection, schedule: Q04DX003 (ip), vehicle: other
  T/C: 160 % of control
dose: 10.0 mg/kg/injection, schedule: Q04DX003 (ip), vehicle: saline with Tween-80
  T/C: 108 % of control and 120 % of control
dose: 12.0 mg/kg/injection, schedule: Q04DX003 (ip), vehicle: other
  T/C: 238 % of control
dose: 15.0 mg/kg/injection, schedule: Q04DX003 (ip), vehicle: other
  T/C: 441 % of control
dose: 15.0 mg/kg/injection, schedule: Q04DX003 (ip), vehicle: saline with Tween-80
  T/C: 218 % of control
dose: 16.0 mg/kg/injection, schedule: Q01DX009 (ip), vehicle: saline with Tween-80
  T/C: 109 % of control
dose: 20.0 mg/kg/injection, schedule: Q04DX003 (ip), vehicle: other
  T/C: 231 % of control
dose: 20.0 mg/kg/injection, schedule: Q04DX003 (ip), vehicle: saline with Tween-80
  T/C: 227 % of control and 250 % of control
dose: 24.0 mg/kg/injection, schedule: Q04DX003 (ip), vehicle: other
  T/C: 110 % of control
dose: 30.0 mg/kg/injection, schedule: Q04DX003 (ip), vehicle: other
  T/C: 156 % of control

## COC(=O)c1c([As](C)C)n[n]([Sn]([CH3])([CH3])[CH3])c1C(=O)OC
dose: 6.25 mg/kg/injection, schedule: Q04DX003 (ip), vehicle: saline
  T/C: 88 % of control
dose: 12.5 mg/kg/injection, schedule: Q04DX003 (ip), vehicle: saline
  T/C: 99 % of control

## Cc1cc(C(=O)NN)no1
[1]
  T/C: 99 % of control
[2]
  T/C: 100 % of control

## COc1c2c(cc3c1C(C1OC(=O)c4c1c([N+](=O)[O-])c(OC)c(OC)c4[N+](=O)[O-])N(C)CC3)OCO2 (centres undefined)
[3]
  T/C: 101 % of control
[4]
  T/C: 92 % of control
[5]
  T/C: 93 % of control
[6]
  T/C: 91 % of control

## COc1cccc2c(NCCCNCCCNc3c4ccccc4nc4c(OC)cccc34)c3ccccc3nc12
dose: 5.0 mg/kg/injection, schedule: Q01DX009 (ip), vehicle: other
  T/C: 153 % of control
dose: 10.0 mg/kg/injection, schedule: Q01DX009 (ip), vehicle: other
  T/C: 157 % of control

## CCCCCCCCCCCC(=O)N(CCCC)CCCC
dose: 37.5 mg/kg/injection, schedule: Q01DX009 (ip), vehicle: Klucel (hydroxypropylcellulose) (HPC)
  T/C: 100 % of control
dose: 75.0 mg/kg/injection, schedule: Q01DX009 (ip), vehicle: Klucel (hydroxypropylcellulose) (HPC)
  T/C: 98 % of control
dose: 150.0 mg/kg/injection, schedule: Q01DX009 (ip), vehicle: Klucel (hydroxypropylcellulose) (HPC)
  T/C: 92 % of control

## O=c1oc2ccccc2c(O)c1C(c1ccc2c(c1)OCO2)N1CCCC1 (centres undefined)
dose: 15.0 mg/kg/injection, schedule: Q01DX005 (ip), vehicle: saline with Tween-80
  T/C: 100 % of control
dose: 30.0 mg/kg/injection, schedule: Q01DX005 (ip), vehicle: saline with Tween-80
  T/C: 102 % of control
[7]
  T/C: 99 % of control and 103 % of control

## COc1c(CC(O)C(C)(C)O)c(=O)n(C)c2ccccc12 (centres undefined)
dose: 4.5 mg/kg/injection, schedule: Q01DX005 (ip), vehicle: Klucel (hydroxypropylcellulose) (HPC)
  T/C: 102 % of control
dose: 9.0 mg/kg/injection, schedule: Q01DX005 (ip), vehicle: Klucel (hydroxypropylcellulose) (HPC)
  T/C: 98 % of control
dose: 18.0 mg/kg/injection, schedule: Q01DX005 (ip), vehicle: Klucel (hydroxypropylcellulose) (HPC)
  T/C: 90 % of control
dose: 36.0 mg/kg/injection, schedule: Q01DX005 (ip), vehicle: Klucel (hydroxypropylcellulose) (HPC)
  T/C: 93 % of control

## C/C(=N\NC(=O)c1ccncc1)c1cccc(/C(C)=N/NC(=O)c2ccncc2)n1.O=S(=O)([O-])[O-].[Fe+2]
[8]
  T/C: 97 % of control
[9]
  T/C: 100 % of control
[10]
  T/C: 87 % of control and 95 % of control

## O=C(CBr)NCC1OC(n2cnc3c(=O)[nH]cnc32)C(O)C1O (centres undefined)
[3]
  T/C: 99 % of control
[4]
  T/C: 96 % of control
[5]
  T/C: 99 % of control

## COC(=O)C1=C/C=C\CN(C=O)/C=C\1C(=O)OC
dose: 100.0 mg/kg/injection, schedule: Q01DX001 (ip), vehicle: alcohol
  T/C: 101 % of control
dose: 200.0 mg/kg/injection, schedule: Q01DX001 (ip), vehicle: alcohol
  T/C: 92 % of control
dose: 400.0 mg/kg/injection, schedule: Q01DX001 (ip), vehicle: alcohol
  T/C: 101 % of control

## C=C(F)F
[4]
  T/C: 95 % of control
[5]
  T/C: 101 % of control
[6]
  T/C: 103 % of control

## C[n+]1c2ccccc2c(Cc2ccccc2)c2ccccc21
[8]
  T/C: 108 % of control
[9]
  T/C: 106 % of control
[10]
  T/C: 100 % of control and 94 % of control

## COc1cc(CC(NC(C)=O)C(=O)O)cc(OC)c1OC (centres undefined)
dose: 100.0 mg/kg/injection, schedule: Q01DX001 (ip), vehicle: saline
  T/C: 105 % of control
dose: 200.0 mg/kg/injection, schedule: Q01DX001 (ip), vehicle: saline
  T/C: 99 % of control
dose: 400.0 mg/kg/injection, schedule: Q01DX001 (ip), vehicle: saline
  T/C: 100 % of control

## c1ccc(-c2nc3ccccc3c3ccccc23)cc1
[10]
  T/C: 101 % of control
dose: 100.0 mg/kg/injection, schedule: Q01DX005 (ip), vehicle: saline with Tween-80
  T/C: 113 % of control
dose: 200.0 mg/kg/injection, schedule: Q01DX005 (ip), vehicle: saline with Tween-80
  T/C: 102 % of control

## O=C1Cc2ccccc2C(=O)N1
dose: 100.0 mg/kg/injection, schedule: Q04DX003 (ip), vehicle: saline with Tween-80
  T/C: 100 % of control
dose: 200.0 mg/kg/injection, schedule: Q04DX003 (ip), vehicle: saline with Tween-80
  T/C: 95 % of control

## CCC(C)C(NC(=O)C(F)(F)F)C(=O)O (centres undefined)
dose: 50.0 mg/kg/injection, schedule: Q01DX009 (ip), vehicle: saline with Tween-80
  T/C: 98 % of control
dose: 100.0 mg/kg/injection, schedule: Q01DX009 (ip), vehicle: saline with Tween-80
  T/C: 98 % of control
dose: 200.0 mg/kg/injection, schedule: Q01DX009 (ip), vehicle: saline with Tween-80
  T/C: 103 % of control

## NC1CCc2cc(O)c(O)cc2C1 (centres undefined)
dose: 100.0 mg/kg/injection, schedule: Q04DX002 (ip), vehicle: saline
  T/C: 108 % of control and 96 % of control
dose: 200.0 mg/kg/injection, schedule: Q04DX002 (ip), vehicle: saline
  T/C: 105 % of control and 109 % of control
dose: 400.0 mg/kg/injection, schedule: Q04DX002 (ip), vehicle: saline
  T/C: 109 % of control

## N#CC1=C(C#N)SCCCS1
[1]
  T/C: 100 % of control
[2]
  T/C: 100 % of control
dose: 200.0 mg/kg/injection, schedule: Q01DX009 (ip), vehicle: saline
  T/C: 99 % of control

## COc1cc2c(cc1OC)C(C#N)(C(c1ccccc1)c1ccccc1)N(C(=O)c1ccccc1)C=C2 (centres undefined)
[7]
  T/C: 100 % of control
dose: 120.0 mg/kg/injection, schedule: Q01DX005 (ip), vehicle: saline with Tween-80
  T/C: 100 % of control
dose: 240.0 mg/kg/injection, schedule: Q01DX005 (ip), vehicle: saline with Tween-80
  T/C: 96 % of control

## Cc1nc(Nc2c(C)cccc2C)c2c(-c3ccccc3)c[nH]c2n1
[4]
  T/C: 99 % of control
[5]
  T/C: 94 % of control
[6]
  T/C: 92 % of control

## COC(=O)c1c(C)ccc2c(O)c3c(cc12)C(=O)c1c2c(cc(O)c1C3=O)C1(C)OC(C)(O2)C(O)C(N(C)C)C1O (centres undefined)
dose: 25.0 mg/kg/injection, schedule: Q01DX010 (ip), vehicle: saline
  T/C: 100 % of control
dose: 50.0 mg/kg/injection, schedule: Q01DX010 (ip), vehicle: saline
  T/C: 100 % of control
dose: 100.0 mg/kg/injection, schedule: Q01DX010 (ip), vehicle: saline
  T/C: 100 % of control
dose: 200.0 mg/kg/injection, schedule: Q01DX010 (ip), vehicle: saline
  T/C: 100 % of control
dose: 400.0 mg/kg/injection, schedule: Q01DX010 (ip), vehicle: saline
  T/C: 100 % of control
